Data: patent publication US20250163119A1, “COMPOUNDS FOR THE TREATMENT OF DIABETES OR OBESITY” (Eli Lilly and Company, priority 2023, published 2025)
“And” between values parts separate entries of the source, which are not always exact repeats. Identical values can stand only once. *1 amine or outer side, *2 acyl side, *3 side chain or, on linkers, in order; H or OH if unused. Where a SMILES comes first, the peptide text is derived from it. Side-chain parts run from the residue outwards. [ ]: non-standard residue; d: D form. The star is where a group is joined. C20 diacid = O=C(O)CCCCCCCCCCCCCCCCCCC(=O)*; γGlu = O=C(O)[C@H](CCC(=O)[*:2])N[*:1]; αMeL = CC(C)C[C@](C)(N)C(=O)O; AEEA = NCCOCCOCC(=O)O

Key:
[1] = tested on: MHC-II presented peptides on human dendritic cells; assay: MAPPS assay (MHC-Associated Peptide Proteomics); assay type: cell-based
In short: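 Peptides eluted from anti-MHC-II immunoprecipitates of day-6 DC lysates were sequenced by MS, mapped onto the parent test molecule, and scored as percentage of donors presenting each region. DCs derived from donor CD14+ cells (IL-4, GM-CSF) received test molecules on day 4, then LPS maturation on day 5.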

[2] = Pharmacokinetics in Sprague Dawley rats, single subcutaneous or intravenous dose (incl. 10, 30, 100 nmol/kg dose response); assay type: in vivo; settings: for Tmax: read-out: Tmax
[3] = Pharmacokinetics in Yucatan mini-pigs, single subcutaneous or intravenous dose; assay type: in vivo
In short: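 Male mini-pigs received one SC or IV dose (19 or 99 nmol/kg) in 40 mM Tris-HCl 5% D-mannitol, pH 8. Blood sampled 0.083 (IV only) to 504 h postdose. Plasma levels measured by LC/MS after extraction and SPE, Orbitrap detection.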

[4] = male, Sprague Dawley, rat, plasma, iv, 197 nmol/kg, single intravenous dose 197 nmol/kg, individual animal
[5] = male, Sprague Dawley, rat, plasma, iv, 197 nmol/kg, single intravenous dose 197 nmol/kg, mean
[6] = male, Sprague Dawley, rat, plasma, sc, 197 nmol/kg, single subcutaneous dose 197 nmol/kg, individual animal
[7] = male, Sprague Dawley, rat, plasma, sc, 197 nmol/kg, single subcutaneous dose 197 nmol/kg, mean
[8] = single intravenous dose 197 nmol/kg, male Sprague Dawley rats, individual animal
[9] = single subcutaneous dose 197 nmol/kg, male Sprague Dawley rats, individual animal
[10] = male Yucatan pigs, single subcutaneous dose 99 nmol/kg, individual animal
[11] = male, Yucatan mini-pig, minipig, plasma, iv, 99 nmol/kg, single intravenous dose 99 nmol/kg, mean
[12] = single intravenous dose 99 nmol/kg, male Yucatan pigs, individual animal

- MAPPS Assay >10 donors with diverse MHC ([1]; donors displaying MHC-II peptides / donors tested): 8/30
- MAPPS Assay >10 donors with diverse MHC ([1]; percentage of donors displaying MHC-II peptides): 27%
- clearance [2, 4]: 1.66 mL/h/kg
- half-life [2, 4]: 41.7 h
- clearance [2, 5]: 1.47 mL/h/kg
- half-life [2, 5]: 45.5 h
- half-life [2, 6]: 52.8 h
- CL/F ([2]; male, Sprague Dawley, rat, plasma, sc, 197 nmol/kg, single subcutaneous dose 197 nmol/kg, individual animal, read-out: CL/F (converted)): 2.35 mL/h/kg
- Tmax [2, 6]: 24 h
- half-life [2, 7]: 47 h
- CL/F ([2]; male, Sprague Dawley, rat, plasma, sc, 197 nmol/kg, single subcutaneous dose 197 nmol/kg, mean, read-out: CL/F (converted)): 2.48 mL/h/kg
- Tmax [2, 7]: 24 h
- AUC0-inf ([2]; rat, plasma, sc, single subcutaneous dose 197 nmol/kg, male Sprague Dawley rats, mean, read-out: AUC0-inf): 89.9 µM·h
- Cmax ([2]; rat, plasma, sc, single subcutaneous dose 197 nmol/kg, male Sprague Dawley rats, mean, read-out: Cmax): 815 nM
- AUC0-inf ([2]; rat, plasma, single intravenous dose 197 nmol/kg, male Sprague Dawley rats, mean, read-out: AUC0-inf): 136 µM·h
- C0 ([2]; rat, plasma, single intravenous dose 197 nmol/kg, male Sprague Dawley rats, mean, read-out: C0): 4270 nM
- CL [2, 8]: 1.30 mL/h/kg and 1.45 mL/h/kg
- T1/2 [2, 8]: 45.2 h and 49.6 h
- AUC0-inf [2, 9]: 96.8 µM·h and 82.9 µM·h
- CL/F [2, 9]: 2.61 mL/h/kg
- Cmax [2, 9]: 881 nM and 749 nM
- T1/2 [2, 9]: 41.1 h
- AUC0-inf ([3]; Yucatan mini-pig, minipig, plasma, sc, male Yucatan pigs, single subcutaneous dose 99 nmol/kg, Mean, read-out: AUC0-inf): 76.4 µM·h
- Cmax ([3]; Yucatan mini-pig, minipig, plasma, sc, male Yucatan pigs, single subcutaneous dose 99 nmol/kg, Mean, read-out: Cmax): 259 nM
- T1/2 [3, 10]: 292 h and 185 h
- Tmax [3, 10]: 168 h
- clearance ([3]; male, Yucatan mini-pig, minipig, plasma, iv, 99 nmol/kg, single intravenous dose 99 nmol/kg, individual animal): 0.321 mL/h/kg
- clearance [3, 11]: 0.356 mL/h/kg
- half-life [3, 11]: 166 h
- half-life ([3]; male, Yucatan mini-pig, minipig, plasma, sc, 99 nmol/kg, single subcutaneous dose 99 nmol/kg, Mean): 214 h
- CL/F ([3]; male, Yucatan mini-pig, minipig, plasma, sc, 99 nmol/kg, single subcutaneous dose 99 nmol/kg, Mean, read-out: CL/F (converted)): 2.22 mL/h/kg
- Tmax ([3]; male, Yucatan mini-pig, minipig, plasma, sc, 99 nmol/kg, single subcutaneous dose 99 nmol/kg, Mean, read-out: Tmax): 72 h
- half-life ([3]; male, Yucatan mini-pig, minipig, plasma, sc, 99 nmol/kg, single subcutaneous dose 99 nmol/kg, individual animal): 166 h
- AUC0-inf ([3]; minipig, plasma, single intravenous dose 99 nmol/kg, male Yucatan pigs, mean, read-out: AUC0-inf): 285 µM·h
- C0 ([3]; minipig, plasma, single intravenous dose 99 nmol/kg, male Yucatan pigs, mean, read-out: C0): 2490 nM
- CL [3, 12]: 0.448 mL/h/kg and 0.299 mL/h/kg
- T1/2 [3, 12]: 109 h and 126 h and 263 h
SMILES: CC[C@H](C)[C@H](NC(C)=O)C(=O)N[C@H](C(=O)N[C@H](C(=O)N[C@@H](CO)C(=O)N[C@@](C)(CC(C)C)C(=O)N[C@@H](CC(=O)O)C(=O)N[C@@H](C(=O)N1CCC[C@H]1C(=O)N[C@H](C(=O)NCC(=O)N[C@@](C)(CC(C)C)C(=O)N[C@@H](CC(C)C)C(=O)N[C@@H](CCC(N)=O)C(=O)N[C@H](C(=O)N[C@@H](CCCCN)C(=O)N[C@@H](CC(C)C)C(=O)N[C@@H](CCC(=O)O)C(=O)N[C@@H](CCC(N)=O)C(=O)N[C@@H](CCC(=O)O)C(=O)N[C@@H](CCCNC(=N)N)C(=O)N[C@@H](C)C(=O)N[C@@H](CCC(=O)O)C(=O)N[C@@H](CCCCN)C(=O)N[C@@H](C)C(=O)N[C@@H](CCCNC(=N)N)C(=O)N[C@@H](CCC(N)=O)C(=O)N[C@@H](CCC(N)=O)C(=O)N[C@@H](C)C(=O)N[C@@H](CCCCNC(=O)COCCOCCNC(=O)COCCOCCNC(=O)CC[C@H](NC(=O)CCCCCCCCCCCCCCCCCCC(=O)O)C(=O)O)C(=O)N[C@@H](CCC(=O)O)C(=O)N[C@@H](CC(N)=O)C(=O)N[C@H](C(=O)N[C@@H](CCC(=O)O)C(=O)N[C@H](C(=O)N[C@@H](CC(C)C)C(=O)N[C@@H](C)C(=O)N[C@@H](CCC(N)=O)C(=O)N[C@H](C(N)=O)C(C)C)[C@@H](C)CC)[C@@H](C)O)[C@@H](C)CC)[C@@H](C)O)C(C)C)[C@@H](C)O)C(C)C [SEQ ID NO: 29, Ac-IVTS αMeL D (D-Val) PTG αMeL LQIKLEQERAEKARQ QAK((2-[2-(2-Amino-ethoxy)-ethoxy]-acetyl)2-γE-CO-(CH2)18-CO2H)ENTEILAQV-NH2] (Ac-IVTS[αMeL]D[dV]PTG[αMeL]LQIKLEQERAEKARQQAK([AEEA-AEEA-γGlu-C20 diacid])ENTEILAQV-NH2)
- peptides displayed on MHC-II complexes ([1]; human dendritic cells from normal donors): at least one peptide cluster on MHC-II complexes in a subset of donors
- immunogenicity compared with SEQ ID NO:54 ([1]; in the MAPPs assay and/or the T cell proliferation assay): substantial improvements in immunogenicity over a compound comprising SEQ ID NO:54
- AUC0-inf [2, 8]: 119 µM·h and 152 µM·h and 136 µM·h
- C0 [2, 8]: 6910 nM and 4840 nM and 1050 nM
- AUC0-inf [3, 10]: 128 µM·h and 67.5 µM·h and 33.8 µM·h
- CL/F [3, 10]: 1.03 mL/h/kg and 2.06 mL/h/kg and 3.56 mL/h/kg
- Cmax [3, 10]: 497 nM and 201 nM and 79.6 nM
- AUC0-inf [3, 12]: 307 µM·h and 220 µM·h and 329 µM·h
- C0 [3, 12]: 2530 nM and 2560 nM and 2380 nM
